The experiment has as its system MC38-OVA cells. Nature of the experiment: CD8+ T cell cytotoxicity assay (OT-I CD8+ T cells co-cultured with MC38-OVA cells, luciferase). The class given is cell-based, mouse. As to conditions: each drug 5.0 μM; in vitro luciferase assay.

Procedure: MC38-OVA cells expressing luciferase were co-cultured with OT-I CD8+ T cells in the presence of each drug (5.0 μM) and the T cell-mediated cytotoxicity was measured by the luciferase assay. Difference (log 2): (log 2 [relative viability] >1; P<0.05). Relative viability=(tumor cell viability of treated group)/(tumor cell viability of control group). […] Statistical analysis was conducted using 1-way ANOVA.
T cells were then centrifuged and cultured in RPMI1640 medium containing of 2 ng/ml murine IL2, 10% FBS and 1% PS.To measure the cytotoxicity of CD8+ T cells, 50,000 enriched CD8+ T cells were mixed in 96-well plates with MC38-OVA cells at ratios of 5:1, 1:1 or 1:5. […] We assessed the killing efficiency by measuring the activity of luciferase (#E1910, Dual-Luciferase® Reporter Assay System, Promega) after 6 hours of co-culture of the T-cells together with the tumor cells.
The CD8+ T cells were freshly isolated from the spleen of OT-I mouse (C57BL/6-Tg (TcraTcrb) 1100Mjb/J).

Turning to `COc1ccc(-c2coc3cc(O)cc(O)c3c2=O)cc1` [biochanin A], the “ranking in screen of antigen-specific OT-I CD8+ T-cell killing of MC38-OVA tumor cells” value is on record as “top-ranked compounds that most potently affected the T-cell activity”.

Turning to icariin, the “ranking in screen of antigen-specific OT-I CD8+ T-cell killing of MC38-OVA tumor cells” value is on record as “top-ranked compounds that most potently affected the T-cell activity”.

The values are drawn from US12691093B2 (THE TRUSTEES OF INDIANA UNIVERSITY, priority 2020, dated 2026).
